The results in this text go back to ChEMBL document CHEMBL1151143, “Repin, a sesquiterpene lactone from Acroptilon repens possessing exceptional biological activity” (1990).

Assay [1] has as its system Neuron. The assay can be described thus: Inhibition of NGF-stimulated extension of neural processes in chick embryo neurons at 300 nM. It counts as functional, cell-based. Particulars: Gallus gallus.
In assay [2] the test system is Neuron. The assay can be described thus: Inhibition of NGF-stimulated extension of neural processes in chick embryo neurons at 80 nM. Particulars: Gallus gallus. The assay is classed as functional.

Calls of active or inactive are those of the source. No cut-off for these calls is given here.

With `C=C1C(=O)O[C@H]2[C@H]1[C@@H](OC(=O)[C@@]1(C)CO1)CC(=C)[C@@H]1C[C@H](O)[C@]3(CO3)[C@H]21`, the result in the assay on Neuron [1] was Active. Turning to `C=C1C(=O)O[C@H]2[C@H]1[C@@H](OC(=O)[C@]1(C)CO1)CC(=C)[C@@H]1C[C@H](O)[C@]3(CO3)[C@H]21` [REPIN], the inhibition at 0.08 µM with Neuron [2] came out at 50%.

By inhibition is commonly meant how much of the control response was suppressed.
